Measured values taken from ChEMBL document CHEMBL4334436 (Medchemcomm, 2019).

Tests used:
D(2) dopamine receptor = D(2) dopamine receptor (Homo sapiens, UniProt P14416); test: Displacement of [3H]spiperone from human dopamine D2S receptor expressed in CHO-K1 cell membrane incubated for 2 hrs by MicroBeta Trilux scintillation counting method; format: cell membranes
D(3) dopamine receptor = D(3) dopamine receptor (Homo sapiens, UniProt P35462); test: Displacement of [3H]spiperone from human dopamine D3 receptor expressed in dihydrofolate reductase deficient CHO-K1 cell membrane incubated for 2 hrs by MicroBeta Trilux scintillation counting method; format: cell membranes
D(3) dopamine receptor, sequence (P35462 whole entry): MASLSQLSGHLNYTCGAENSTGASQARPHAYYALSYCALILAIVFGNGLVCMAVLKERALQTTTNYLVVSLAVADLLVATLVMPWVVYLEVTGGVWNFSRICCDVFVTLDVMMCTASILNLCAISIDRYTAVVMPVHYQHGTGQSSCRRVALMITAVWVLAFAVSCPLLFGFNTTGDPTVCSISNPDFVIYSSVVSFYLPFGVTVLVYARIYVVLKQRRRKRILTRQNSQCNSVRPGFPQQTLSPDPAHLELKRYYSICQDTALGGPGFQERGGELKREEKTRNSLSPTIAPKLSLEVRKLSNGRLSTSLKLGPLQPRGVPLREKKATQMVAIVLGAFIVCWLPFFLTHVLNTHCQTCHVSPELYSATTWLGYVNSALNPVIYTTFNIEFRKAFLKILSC

D(2) dopamine receptor, sequence (P14416 whole entry): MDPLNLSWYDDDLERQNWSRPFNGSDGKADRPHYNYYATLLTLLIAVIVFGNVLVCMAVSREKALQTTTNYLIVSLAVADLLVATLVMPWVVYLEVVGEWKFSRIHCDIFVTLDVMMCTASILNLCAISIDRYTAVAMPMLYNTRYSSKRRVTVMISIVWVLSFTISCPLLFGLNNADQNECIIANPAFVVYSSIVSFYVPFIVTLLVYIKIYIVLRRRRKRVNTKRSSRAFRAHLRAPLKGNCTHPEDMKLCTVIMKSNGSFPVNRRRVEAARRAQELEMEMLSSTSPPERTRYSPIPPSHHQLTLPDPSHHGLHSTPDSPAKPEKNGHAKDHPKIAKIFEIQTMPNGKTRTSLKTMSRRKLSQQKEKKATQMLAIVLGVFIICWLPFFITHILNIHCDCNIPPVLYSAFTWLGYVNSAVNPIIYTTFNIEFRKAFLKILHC

Row | SMILES | Ki (D(2) dopamine receptor) | Ki (D(3) dopamine receptor)
1 | COc1ccccc1N1CCN(CCCCN2CCc3ncsc3CC2)CC1 | 85.1 nM | 309 nM
2 | O=C(c1ccccc1)N1CCN(CCN2CCc3ncsc3CC2)CC1 | 41700 nM | 12300 nM
3 | Clc1cccc(N2CCN(CCCCN3CCc4ncsc4CC3)CC2)c1Cl | 18.2 nM | 28.2 nM
4 | COc1ccccc1N1CCN(CCCCOc2ccc3scnc3c2)CC1 | 3.24 nM | 8.51 nM
5 | O=C(NCCCCN1CCc2ncsc2CC1)C12CC3CC(CC(C3)C1)C2 | 5500 nM | 447 nM
6 | COc1ccccc1N1CCN(CCCCOc2ccc3sc(N)nc3c2)CC1 | 2.82 nM | 3.02 nM
7 | COc1ccccc1N1CCN(CCCN2CCc3ncsc3CC2)CC1 | 64.6 nM | 166 nM
8 | COc1ccccc1N1CCN(CCN2CCc3ncsc3CC2)CC1 | 151 nM | 240 nM
9 | c1nc2c(s1)CCN(CCCCN1CCc3ncsc3CC1)CC2 | 6310 nM | 3800 nM
10 | Nc1nc2c(s1)CCN(CCCCN1CCN(c3ncccn3)CC1)CC2 | 2750 nM | 3800 nM
11 | c1cnc(N2CCN(CCCCN3CCc4ncsc4CC3)CC2)nc1 | 2510 nM | 3090 nM
12 | COc1ccccc1N1CCN(CCCN2CCCc3ncsc3C2)CC1 | 178 nM | 257 nM
13 | Nc1nc2c(s1)CCN(CCCCN1CCN(c3cccc(Cl)c3Cl)CC1)CC2 | 22.4 nM | 25.7 nM
